Drawing on the Kinase Knowledgebase extract (Sharma et al. 2016), this text covers IC50 for nine molecules.

One assay deals with PIK3CA (human) (UniProt P42336). Description: Assessment of PIK3CA Kinase Activity.
Another assay deals with PIK3CD (Human) (UniProt O00329). Description: Assessment of PIK3CD Kinase Activity.
For a further assay, the target named is PIK3CB (Human) (UniProt P42338). The experiment in a line: Assessment of PIK3CB Kinase Activity.
PIK3CB (Human), sequence (P42338 whole entry, looked up): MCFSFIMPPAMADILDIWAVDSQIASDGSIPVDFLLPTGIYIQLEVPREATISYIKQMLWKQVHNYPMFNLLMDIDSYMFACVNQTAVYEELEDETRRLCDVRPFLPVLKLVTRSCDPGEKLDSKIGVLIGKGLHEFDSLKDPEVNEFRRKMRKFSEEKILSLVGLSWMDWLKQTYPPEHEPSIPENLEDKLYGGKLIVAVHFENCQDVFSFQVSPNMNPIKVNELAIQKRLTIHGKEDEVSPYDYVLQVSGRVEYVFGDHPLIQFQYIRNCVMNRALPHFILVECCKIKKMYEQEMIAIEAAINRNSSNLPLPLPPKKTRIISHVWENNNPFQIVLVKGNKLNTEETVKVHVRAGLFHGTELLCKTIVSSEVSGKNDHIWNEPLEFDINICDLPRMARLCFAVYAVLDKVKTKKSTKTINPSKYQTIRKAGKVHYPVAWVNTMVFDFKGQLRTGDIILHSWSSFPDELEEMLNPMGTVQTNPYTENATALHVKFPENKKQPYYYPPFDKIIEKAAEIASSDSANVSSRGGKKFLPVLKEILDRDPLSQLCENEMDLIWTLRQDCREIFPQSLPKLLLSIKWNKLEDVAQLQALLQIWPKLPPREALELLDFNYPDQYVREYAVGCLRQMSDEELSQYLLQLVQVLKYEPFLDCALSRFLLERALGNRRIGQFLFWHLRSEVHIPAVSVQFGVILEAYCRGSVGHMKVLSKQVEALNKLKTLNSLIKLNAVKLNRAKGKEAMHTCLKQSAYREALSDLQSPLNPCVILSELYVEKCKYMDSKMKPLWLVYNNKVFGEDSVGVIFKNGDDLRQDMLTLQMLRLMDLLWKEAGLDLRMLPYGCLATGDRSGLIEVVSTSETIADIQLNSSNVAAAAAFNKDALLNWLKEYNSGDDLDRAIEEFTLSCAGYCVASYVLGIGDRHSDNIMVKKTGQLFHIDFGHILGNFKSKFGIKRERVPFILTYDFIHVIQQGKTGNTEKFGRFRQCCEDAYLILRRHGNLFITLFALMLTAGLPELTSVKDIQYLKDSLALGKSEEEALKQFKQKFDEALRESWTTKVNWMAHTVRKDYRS

PIK3CD (Human), sequence (O00329 whole entry, looked up): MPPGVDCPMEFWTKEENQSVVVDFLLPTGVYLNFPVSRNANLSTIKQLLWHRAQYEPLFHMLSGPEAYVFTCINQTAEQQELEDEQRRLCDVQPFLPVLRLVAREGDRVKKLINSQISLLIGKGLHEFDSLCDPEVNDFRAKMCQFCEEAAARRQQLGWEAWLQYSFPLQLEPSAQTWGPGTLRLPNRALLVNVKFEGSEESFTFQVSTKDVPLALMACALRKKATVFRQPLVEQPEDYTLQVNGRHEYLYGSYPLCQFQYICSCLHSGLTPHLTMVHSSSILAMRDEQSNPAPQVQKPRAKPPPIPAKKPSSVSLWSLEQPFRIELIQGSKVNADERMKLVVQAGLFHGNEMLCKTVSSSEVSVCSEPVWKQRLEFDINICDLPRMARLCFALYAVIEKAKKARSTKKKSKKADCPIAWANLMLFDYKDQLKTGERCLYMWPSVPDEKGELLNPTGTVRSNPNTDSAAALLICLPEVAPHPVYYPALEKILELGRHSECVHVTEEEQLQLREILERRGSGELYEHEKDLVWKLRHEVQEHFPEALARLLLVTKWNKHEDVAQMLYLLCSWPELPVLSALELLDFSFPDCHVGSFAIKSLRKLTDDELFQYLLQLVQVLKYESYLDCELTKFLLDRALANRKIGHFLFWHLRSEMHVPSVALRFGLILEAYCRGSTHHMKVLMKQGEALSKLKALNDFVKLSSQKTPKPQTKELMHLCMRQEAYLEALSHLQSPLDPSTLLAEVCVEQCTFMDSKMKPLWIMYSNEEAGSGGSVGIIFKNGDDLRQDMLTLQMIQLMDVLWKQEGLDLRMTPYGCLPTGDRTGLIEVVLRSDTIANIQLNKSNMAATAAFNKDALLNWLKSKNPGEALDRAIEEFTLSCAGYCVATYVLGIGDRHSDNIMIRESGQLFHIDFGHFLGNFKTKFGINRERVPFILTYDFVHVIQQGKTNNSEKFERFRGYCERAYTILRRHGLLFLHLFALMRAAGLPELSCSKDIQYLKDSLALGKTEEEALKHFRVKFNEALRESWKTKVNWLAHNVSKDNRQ
PIK3CA (human), sequence (P42336 whole entry, looked up): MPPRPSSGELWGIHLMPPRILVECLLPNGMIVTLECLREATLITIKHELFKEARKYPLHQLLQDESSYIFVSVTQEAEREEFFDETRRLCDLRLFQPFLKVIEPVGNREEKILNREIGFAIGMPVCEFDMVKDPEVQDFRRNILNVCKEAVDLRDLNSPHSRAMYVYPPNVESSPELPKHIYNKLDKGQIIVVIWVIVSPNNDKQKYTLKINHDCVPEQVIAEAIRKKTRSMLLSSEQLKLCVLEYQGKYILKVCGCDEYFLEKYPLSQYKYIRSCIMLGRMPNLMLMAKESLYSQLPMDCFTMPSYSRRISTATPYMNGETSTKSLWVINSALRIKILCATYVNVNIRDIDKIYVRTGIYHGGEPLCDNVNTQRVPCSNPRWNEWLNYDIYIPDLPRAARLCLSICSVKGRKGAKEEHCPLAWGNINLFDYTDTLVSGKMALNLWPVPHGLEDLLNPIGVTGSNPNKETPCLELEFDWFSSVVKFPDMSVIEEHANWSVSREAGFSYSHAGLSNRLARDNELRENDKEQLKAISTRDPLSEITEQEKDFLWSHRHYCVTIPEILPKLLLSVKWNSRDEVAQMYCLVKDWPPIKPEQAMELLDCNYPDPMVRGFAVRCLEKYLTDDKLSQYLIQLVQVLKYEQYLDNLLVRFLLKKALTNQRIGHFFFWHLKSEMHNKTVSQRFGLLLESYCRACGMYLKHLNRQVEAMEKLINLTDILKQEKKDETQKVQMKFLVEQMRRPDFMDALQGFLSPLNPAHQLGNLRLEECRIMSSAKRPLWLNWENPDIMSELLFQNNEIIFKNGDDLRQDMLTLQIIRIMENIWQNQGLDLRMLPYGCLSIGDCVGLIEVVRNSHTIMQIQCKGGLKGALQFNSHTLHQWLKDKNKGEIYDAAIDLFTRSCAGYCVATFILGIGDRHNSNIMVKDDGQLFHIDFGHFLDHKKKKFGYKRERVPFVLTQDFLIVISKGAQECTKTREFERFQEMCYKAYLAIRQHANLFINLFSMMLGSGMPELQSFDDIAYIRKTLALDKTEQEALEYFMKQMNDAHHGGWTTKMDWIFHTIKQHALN

Consider `COc1cccc2c1nc(C(F)F)n2-c1nc(-c2ccc(S(=O)(=O)N3CCN(C)CC3)cc2)nc(N2CCOCC2)n1`, for which the IC50 (usually the point on the concentration scale where inhibition reaches its midpoint) against PIK3CA (human) lay within 100 to 1000 nM.
For `COc1cccc2c1nc(C(F)F)n2-c1nc(OC2CCN(S(=O)(=O)CCN3CCOCC3)CC2)nc(N2CCOCC2)n1`, the IC50 at PIK3CA (human) and on PIK3CD (Human) was below 100 nM each time.
For the molecule `COc1cccc2c1nc(C(F)F)n2-c1nc(N2CCOCC2)nc(N(CCCN(C)C)C2CCN(S(=O)(=O)CCl)CC2)n1`, the IC50 on PIK3CA (human) was 100 to 1000 nM; against PIK3CD (Human), below 100 nM.
Taken in the same sequence, the figures for `COc1cccc2c1nc(C(F)F)n2-c1nc(-c2ccc(N(C)S(=O)(=O)CCN(C)C)cc2)nc(N2CCOCC2)n1` were 100 to 1000 nM and 100 to 1000 nM.
On the same counts, the results for `COc1cccc2c1nc(C(F)F)n2-c1nc(N2CCOCC2)nc(N2CCC[C@H](N(CCCN(C)C)S(C)(=O)=O)C2)n1` are 100 to 1000 nM and 100 to 1000 nM.
In the case of `COc1cccc2c1nc(C(F)F)n2-c1nc(N2CCOCC2)c2cnn(C3CCN(S(=O)(=O)CCN(C)C)CC3)c2n1`, the IC50 against PIK3CA (human) was below 100 nM; at PIK3CB (Human) it was 100 to 1000 nM; on PIK3CD (Human), 100 to 1000 nM.
Take `CN(C)CCS(=O)(=O)N1CCN(c2nc(N3CCOCC3)nc(-n3c(C(F)F)nc4ccccc43)n2)CC1`: the IC50 against PIK3CA (human) and against PIK3CD (Human) was 100 to 1000 nM each time.
For the molecule `COc1cc(N)cc2c1nc(C(F)F)n2-c1nc(N2CCOCC2)nc(N2CCN(S(=O)(=O)CCN(C)C)CC2)n1`, the IC50 against PIK3CA (human) is below 100 nM; at PIK3CB (Human), 100 to 1000 nM; at PIK3CD (Human), below 100 nM.
With `CN(C)CCCOc1cccc2c1nc(C(F)F)n2-c1nc(OC2CCN(S(C)(=O)=O)CC2)nc(N2CCOCC2)n1`, the IC50 against PIK3CA (human) and against PIK3CD (Human) was 100 to 1000 nM each time.
